Patent US20080051418A1, “Arylalkanoic Acid Derivative” (priority 2004, published 2008)
Where two headings read alike, the source gives them in different places.

Legend:
PPARδ-RXRα heterodimer = biological target: T1, PPARδ-RXRα heterodimer (Homo sapiens, UniProt Q03181); assay: PPARδ-RXRα heterodimer ligand activity (luciferase reporter); type: cell-based; details: transformant of Reference Example 9a of WO03/099793, 36-48 hr, concentration showing 50% of the maximum induction rate
T1 construct: expressed in transfected cells
T1 sequence (Q03181 1-441): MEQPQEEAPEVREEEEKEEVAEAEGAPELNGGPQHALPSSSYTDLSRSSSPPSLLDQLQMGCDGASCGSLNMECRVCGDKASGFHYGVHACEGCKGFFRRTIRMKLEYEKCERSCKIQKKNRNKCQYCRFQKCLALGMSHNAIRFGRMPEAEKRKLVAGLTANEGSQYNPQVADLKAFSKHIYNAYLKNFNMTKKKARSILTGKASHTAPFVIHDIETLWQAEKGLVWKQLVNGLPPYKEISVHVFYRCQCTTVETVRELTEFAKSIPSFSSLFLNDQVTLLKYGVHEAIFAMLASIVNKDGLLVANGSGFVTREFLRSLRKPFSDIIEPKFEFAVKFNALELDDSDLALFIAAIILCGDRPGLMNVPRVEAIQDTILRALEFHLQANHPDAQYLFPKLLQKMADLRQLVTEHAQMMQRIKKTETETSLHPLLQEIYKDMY
T1 sequence (P19793 1-462 partner): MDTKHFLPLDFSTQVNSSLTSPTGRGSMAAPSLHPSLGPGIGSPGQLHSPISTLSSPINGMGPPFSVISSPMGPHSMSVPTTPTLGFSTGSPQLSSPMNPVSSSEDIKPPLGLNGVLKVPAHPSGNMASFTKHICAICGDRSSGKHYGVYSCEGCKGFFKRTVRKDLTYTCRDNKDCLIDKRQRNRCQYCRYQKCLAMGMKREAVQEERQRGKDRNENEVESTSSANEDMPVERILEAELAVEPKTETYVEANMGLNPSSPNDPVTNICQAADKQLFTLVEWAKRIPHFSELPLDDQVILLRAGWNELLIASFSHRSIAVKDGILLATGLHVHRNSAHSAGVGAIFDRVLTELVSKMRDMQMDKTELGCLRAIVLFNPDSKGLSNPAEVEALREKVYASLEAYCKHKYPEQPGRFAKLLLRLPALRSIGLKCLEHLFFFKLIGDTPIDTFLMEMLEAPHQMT
Protocol: The transformant described in Reference Example 9a of WO03/099793 was suspended in a DMEM medium [manufactured by Life technologies, Inc., US] containing 0.1% fatty acid-free bovine serum albumin (BSA) (manufactured by Wako Pure Chemical Industries, Ltd.), and inoculated to each well of a 96 well white plate [manufactured by Corning Coster Corporation, US] by 80 μl to 1×10^4 cells/well. Then, the test compound (20 μl) was added, and cultured under the conditions of 37° C., 5% CO2 for 36-48 hr. The medium was removed from the 96 well white plate, 40 μl of PicaGene LT 7.5 (manufactured by Wako Pure Chemical Industries, Ltd.) diluted 2-fold with HBSS (HANKS' BALANCED SALT SOLUTION) [manufactured by BIO WHITTAKER, US] was added and, after stirring, the luciferase activity was determined using the 1420 ARVO Multilabel Counter [manufactured by PerkinElmer, US].
The induction rate was calculated from the luciferase activity of each test compound based on the luciferase activity of the test compound non-administration group as 1. The test compound concentration and the induction rate were analyzed by PRISM [manufactured by GraphPad Software, Inc., US] to calculate EC50 value (compound concentration showing 50% of the maximum value of induction rate) of the test compound.

PPARγ-RXRα heterodimer = biological target: T2, PPARγ-RXRα heterodimer (Homo sapiens, UniProt P37231); assay: PPARγ-RXRα heterodimer ligand activity (luciferase reporter); type: cell-based; details: PPARγ:RXRα:4ERPP/CHO-K1 cells, 18-24 hr, concentration showing 50% of the maximum induction rate
T2 construct: expressed in transfected cells; host or cells: CHO-K1
T2 sequence (P37231 1-505): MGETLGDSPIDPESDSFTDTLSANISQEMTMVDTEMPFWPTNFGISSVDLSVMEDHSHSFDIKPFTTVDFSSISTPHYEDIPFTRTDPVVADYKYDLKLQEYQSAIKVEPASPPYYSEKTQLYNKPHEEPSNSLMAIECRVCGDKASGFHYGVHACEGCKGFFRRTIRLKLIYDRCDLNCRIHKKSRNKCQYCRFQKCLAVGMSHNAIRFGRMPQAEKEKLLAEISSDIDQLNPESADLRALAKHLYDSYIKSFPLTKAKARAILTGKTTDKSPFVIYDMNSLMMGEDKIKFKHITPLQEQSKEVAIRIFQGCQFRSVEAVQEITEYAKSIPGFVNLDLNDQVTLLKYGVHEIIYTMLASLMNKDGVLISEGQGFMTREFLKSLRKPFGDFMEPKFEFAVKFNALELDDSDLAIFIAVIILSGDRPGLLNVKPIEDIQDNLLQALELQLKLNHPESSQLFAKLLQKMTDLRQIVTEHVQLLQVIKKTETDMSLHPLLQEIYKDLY
T2 sequence (P19793 1-462 partner): T1 sequence (P19793 1-462 partner)
Method in brief: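 CHO-K1 cells carrying PPARγ, RXRα and a 4ERPP luciferase reporter, exposed to compound 18–24 h at 37 °C in Ham F12 with 0.1% fatty acid-free BSA. Luciferase induction expressed relative to untreated cells (= 1). EC50 is concentration giving 50% of maximal induction.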

KKA^y mice = assay: Blood glucose and blood lipid (triglyceride) lowering action in mice; type: in vivo; details: Mus musculus, po, 96 h, 0.005% in powder diet, 4 days, non-administration group = 100%
Text: The test compound was mixed with a powder diet (CE-2, CLEA JAPAN, INC.) at a proportion of 0.005% (0.01% for the compound of Example 105) and freely given to KKA^y mice (9 to 12-week-old, 5 mice per group) which are obesity-insulin independent diabetes mellitus (type-2 diabetes) models, for 4 days. During this period, water was freely given. The blood was drawn from the orbital venous plexus. Glucose and triglyceride in the plasma separated from the blood were quantitated using L Type Wako Glu2 (Wako Pure Chemical Industries, Ltd.) and L Type Wako TG•H (Wako Pure Chemical Industries, Ltd.), respectively, according to an enzyme method.

[1] = lowering rate of plasma glucose, read-out: hypoglycemic action (%)
[2] = lowering rate of plasma triglyceride, read-out: hypolipidemic action (%)

Row | SMILES | EC50 (PPARδ-RXRα heterodimer) | EC50 (PPARγ-RXRα heterodimer) | melting point | inhibition in vivo at 0.005 % (KKA^y mice; [1]) | inhibition in vivo at 0.005 % (KKA^y mice; [2])
1 | COc1cccc(CC(=O)O)c1OCCCc1cc(OC(C)C)nn1Cc1ccc(F)cc1Cl [Example 64, (2-{3-[1-(2-chloro-4-fluorobenzyl)-3-isopropoxy-1H-pyrazol-5-yl]propoxy}-3-methoxyphenyl)acetic acid] | 93 nM | 11 nM | – | 59% | 71%
2 | CCn1cc(CC(=O)O)c(OCCCc2ccc(OC(C)C)cc2Oc2ncc(C(F)(F)F)cc2Cl)n1 [Example 117, {3-[3-(2-{[3-chloro-5-(trifluoromethyl)pyridin-2-yl]oxy}-4-isopropoxyphenyl)propoxy]-1-ethyl-1H-pyrazol-4-yl}acetic acid] | 4.3 nM | 0.78 nM | – | 49% | 18%
3 | COCCOc1ccc(CCCOc2nn(C)cc2CC(=O)O)c(Oc2ncc(C(F)(F)F)cc2Cl)c1 [Example 122, (3-{3-[2-{[3-chloro-5-(trifluoromethyl)pyridin-2-yl]oxy}-4-(2-methoxyethoxy)phenyl]propoxy}-1-methyl-1H-pyrazol-4-yl)acetic acid] | 76 nM | 4.1 nM | 127 to 129 °C | 72% | 33%
4 | CC(C)Oc1ccc(CCCCOc2cc(CCC(=O)O)n(-c3ccccc3)n2)c(Oc2ncc(C(F)(F)F)cc2Cl)c1 [Example 156, 3-{3-[4-(2-{[3-chloro-5-(trifluoromethyl)pyridin-2-yl]oxy}-4-isopropoxyphenyl)butoxy]-1-phenyl-1H-pyrazol-5-yl}propanoic acid] | 3.4 nM | 0.99 nM | 75 to 77 °C | – | –
5 | CCn1nc(OCCCCc2ccc(OC(C)C)cc2Oc2ncc(C(F)(F)F)cc2Cl)cc1CCC(=O)O [Example 158, 3-{3-[4-(2-{[3-chloro-5-(trifluoromethyl)pyridin-2-yl]oxy}-4-isopropoxyphenyl)butoxy]-1-ethyl-1H-pyrazol-5-yl}propanoic acid] | 17 nM | 7.1 nM | 129 to 130 °C | – | –

Now from value to compound, other results behind:

Row | EC50 (PPARδ-RXRα heterodimer) | EC50 (PPARγ-RXRα heterodimer) | melting point | SMILES | inhibition in vivo at 0.005 % (KKA^y mice; [1]) | inhibition in vivo at 0.005 % (KKA^y mice; [2])
6 | 11 nM | 1.4 nM | 71 to 73 °C | CC(C)Cn1nc(OCCCc2ccc(OC(C)C)cc2Oc2ncc(C(F)(F)F)cc2Cl)cc1CCC(=O)O [Example 143, 3-{3-[3-(2-{[3-chloro-5-(trifluoromethyl)pyridin-2-yl]oxy}-4-isopropoxyphenyl)propoxy]-1-isobutyl-1H-pyrazol-5-yl}propanoic acid] | – | –
7 | 4.4 nM | 0.35 nM | 128 to 129 °C | COCCOc1ccc(CCCOc2cc(CCC(=O)O)n(-c3ccccc3)n2)c(Oc2ncc(C(F)(F)F)cc2Cl)c1 [Example 147, 3-(3-{3-[2-{[3-chloro-5-(trifluoromethyl)pyridin-2-yl]oxy}-4-(2-methoxyethoxy)phenyl]propoxy}-1-phenyl-1H-pyrazol-5-yl)propanoic acid] | – | –
8 | 6 nM | 5.3 nM | 139 to 141 °C | CC(C)Oc1ccc(CCCOc2cc(CCC(=O)O)n(-c3ccccc3)n2)c(OCc2ccc(Cl)cc2Cl)c1 [Example 160, 3-[3-(3-{2-[(2,4-dichlorobenzyl)oxy]-4-isopropoxyphenyl}propoxy) -1-phenyl-1H-pyrazol-5-yl]propanoic acid] | – | –
9 | 2.2 nM | 24 nM | 118 to 119 °C | CC(C)Oc1ccc(CCCOc2cc(CCC(=O)O)n(-c3ccccc3)n2)c(OCc2ccc(C(F)(F)F)cc2)c1 [Example 166, 3-{3-[3-(4-isopropoxy-2-{[4-(trifluoromethyl)benzyl]oxy}phenyl)propoxy]-1-phenyl-1H-pyrazol-5-yl}propanoic acid] | – | –
10 | 11 nM | 16 nM | 104 to 106 °C | CC(C)Oc1cc(CCCOc2cc(CCC(=O)O)n(-c3ccccc3)n2)cc(COc2ccc(Cl)cc2Cl)c1 [Example 196, 3-[3-(3-{3-[(2,4-dichlorophenoxy)methyl]-5-isopropoxyphenyl}propoxy)-1-phenyl-1H-pyrazol-5-yl]propanoic acid] | – | –
